Tests used:
TDO = TDO (Homo sapiens, UniProt P48775); experiment: A172 kynurenine cell-based assay; parameters: This assay utilised cancer cells which expressed either TDO or IDO; endogenous in cells; host or cells: A172 (human glioblastoma); details: A172 human glioblastoma cells, 48 hours, 500 μM L-tryptophan; read-out: A172 Kynurenine cell based assay pIC50 (converted)
Experimental: (§1) Exemplary compounds of the invention were prepared, and tested to determine their effect as TDO and/or IDO inhibitors. Two different assays were employed: 1. a cell-based assay for detecting the effect of test compounds on kynurenine production in two different cancer cell types. This assay utilised cancer cells which expressed either TDO or IDO and as such was used as a means of testing compound activity at these two enzymes in a cell-based context. 2. a TDO and IDO biochemical coupled assay which utilised recombinantly produced and purified TDO and IDO enzymes in combination with the enzyme formamidase. This coupled enzyme system allowed conversion of N-formylkynurenine produced by TDO or IDO activity to kynurenine which was then quantified by fluorescence following addition of Erhlich's Reagent The protocols for these are set out below.
(§2) Cell Based Assay for Detection of Kynurenine Produced by TDO and/or IDO
(§3) A172 (human glioblastoma) and SKOV3 (human ovarian adenocarcinoma) cells were seeded in a 96 well plate at 30,000 or 40,000 cells per well respectively in phenol red-free RPMI supplemented with 10% FCS, 2 mM L-glutamine and 500 μM L-tryptophan. IDO expression was induced in the SKOV3 cells by the addition of 500 ng/ml IFN-γ. Cells were incubated at 37° C. with or without the addition of test compound. After 48 hours, the cells were removed by centrifugation and Erhlich's reagent was added to the supernatant. The Erhlich's reagent was incubated for 5 minutes before the absorbance was read at 490 nm.

IDO = IDO (Homo sapiens, UniProt P14902); experiment: SKOV3 kynurenine cell-based assay (IDO induced by IFN-γ); parameters: IDO expression was induced in the SKOV3 cells by the addition of 500 ng/ml IFN-γ; endogenous in cells; host or cells: SKOV3 (human ovarian adenocarcinoma), induced with IFN-γ; details: SKOV3 human ovarian adenocarcinoma cells, 500 ng/ml IFN-γ, 48 hours, 500 μM L-tryptophan; read-out: SKOV3 Kynurenine cell based assay pIC50 (converted)
Experimental: as §1, §2, §3

TDO, sequence (P48775 whole entry): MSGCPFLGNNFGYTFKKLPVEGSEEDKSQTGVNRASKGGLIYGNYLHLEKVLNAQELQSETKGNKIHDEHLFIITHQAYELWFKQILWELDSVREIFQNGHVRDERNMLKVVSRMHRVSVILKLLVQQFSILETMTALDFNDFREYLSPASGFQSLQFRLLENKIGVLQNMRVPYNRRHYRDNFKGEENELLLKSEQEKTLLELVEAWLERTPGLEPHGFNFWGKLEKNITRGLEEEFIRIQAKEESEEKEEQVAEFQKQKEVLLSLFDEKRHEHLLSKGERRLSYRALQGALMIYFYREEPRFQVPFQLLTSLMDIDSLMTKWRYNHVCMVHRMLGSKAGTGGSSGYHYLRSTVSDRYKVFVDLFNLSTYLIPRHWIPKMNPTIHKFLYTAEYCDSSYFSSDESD
IDO, sequence (P14902 whole entry): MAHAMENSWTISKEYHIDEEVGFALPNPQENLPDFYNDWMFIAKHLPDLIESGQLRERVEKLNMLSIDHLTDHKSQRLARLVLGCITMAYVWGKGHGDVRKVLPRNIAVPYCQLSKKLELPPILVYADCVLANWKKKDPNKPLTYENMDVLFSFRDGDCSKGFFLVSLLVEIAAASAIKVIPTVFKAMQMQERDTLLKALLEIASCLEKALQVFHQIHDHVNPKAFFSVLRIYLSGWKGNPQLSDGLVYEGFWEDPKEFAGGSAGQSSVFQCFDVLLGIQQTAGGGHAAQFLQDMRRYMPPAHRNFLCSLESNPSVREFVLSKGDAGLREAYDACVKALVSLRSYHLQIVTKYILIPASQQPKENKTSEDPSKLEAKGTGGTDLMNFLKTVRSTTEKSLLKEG

SMILES	IC50 (TDO) [µM]	IC50 (IDO) [µM]
CS(=O)(=O)N1CCC(c2cc(C(F)(F)F)cc3[nH]ncc23)CC1 [Compound 100]	< 3.16	3.24 to 31.6
CS(=O)(=O)N1CCN(c2cc(C3CC3)cc3[nH]ncc23)CC1 [Compound 101]	3.24 to 31.6	> 100
C[C@@H]1CN(c2cc(Cl)cc3[nH]ncc23)C[C@@H](C)N1S(C)(=O)=O [Compound 102]	< 3.16	3.24 to 31.6
CC(=O)N1[C@H](C)CN(c2cc(Cl)cc3[nH]ncc23)C[C@H]1C [Compound 103]	< 3.16	> 100
CC(=O)N1CCN(c2cc(Cl)cc3c2cnn3C)CC1(C)C [Compound 104]	3.24 to 31.6	32.4 to 100
Cn1ncc2c(N3CCN(S(C)(=O)=O)C(C)(C)C3)cc(Cl)cc21 [Compound 105]	> 100	32.4 to 100
O=C(C1CC1)N1CCN(c2cc(Cl)cc3[nH]ncc23)CC1 [Compound 107]	< 3.16	3.24 to 31.6
CC(C)C(=O)N1CCN(c2cc(Cl)cc3[nH]ncc23)CC1 [Compound 108]	< 3.16	3.24 to 31.6
CCC(=O)N1CCN(c2cc(Cl)cc3[nH]ncc23)CC1 [Compound 109]	< 3.16	3.24 to 31.6
NC(=O)N1CCN(c2cc(Cl)cc3[nH]ncc23)CC1 [Compound 110]	< 3.16	3.24 to 31.6
CC(C)(O)C(=O)N1CCN(c2cc(Cl)cc3[nH]ncc23)CC1 [Compound 111]	< 3.16	3.24 to 31.6
COCC(=O)N1CCN(c2cc(Cl)cc3[nH]ncc23)CC1 [Compound 112]	< 3.16	3.24 to 31.6
CC(=O)N1[C@H](C)CN(c2cc(Cl)cc3[nH]ncc23)C[C@@H]1C [Compound 113]	< 3.16	3.24 to 31.6
CNS(=O)(=O)N1CCN(c2cc(Cl)cc3[nH]ncc23)CC1 [Compound 114]	< 3.16	3.24 to 31.6
O=S(=O)(Cc1ccccc1)N1CCC(c2cc(Cl)cc3[nH]ncc23)CC1 [Compound 115]	< 3.16	3.24 to 31.6
O=C(N1CCN(c2cc(Cl)cc3[nH]ncc23)CC1)C1(O)CC1 [Compound 116]	< 3.16	3.24 to 31.6
CN(C1CCN(c2cc(Cl)cc3[nH]ncc23)CC1)S(C)(=O)=O [Compound 117]	< 3.16	3.24 to 31.6
CC(C)(F)C(=O)N1CCN(c2cc(Cl)cc3[nH]ncc23)CC1 [Compound 118]	< 3.16	3.24 to 31.6
CN(C)S(=O)(=O)N1CCN(c2cc(Cl)cc3[nH]ncc23)CC1 [Compound 119]	< 3.16	3.24 to 31.6
CS(=O)(=O)N1CCN(c2cccc3c(N)noc23)CC1 [Compound 120]	> 100	3.24 to 31.6
CC(=O)N1CCN(c2cc(C3CC3)cc3[nH]ncc23)CC1 [Compound 121]	3.24 to 31.6	> 100
CN1CC2CN(c3cc(Cl)cc4[nH]ncc34)CCN2C1=O (centres unmarked) [Compound 122]	< 3.16	3.24 to 31.6

SMILES	IC50 (TDO) [µM]	IC50 (IDO) [µM]
CS(=O)(=O)N1CCC(O)(c2cc(Cl)cc3[nH]ncc23)CC1 [Compound 123]	< 3.16	3.24 to 31.6
CS(=O)(=O)N1CCC(F)(c2cc(Cl)cc3[nH]ncc23)CC1 [Compound 124]	< 3.16	3.24 to 31.6
OC1CCCN(c2cc(Cl)cc3[nH]ncc23)C1 (centres unmarked) [Compound 125]	< 3.16	32.4 to 100
CC(=O)N1CCN(c2cc(C3CC3)cc3[nH]ncc23)CC1(C)C [Compound 126]	< 3.16	3.24 to 31.6
CC1(C)CN(c2cc(C3CC3)cc3[nH]ncc23)CCN1S(C)(=O)=O [Compound 127]	< 3.16	3.24 to 31.6
CC(=O)N1CC=C(c2cc(Br)cc3[nH]ncc23)CC1 [Compound 128]	< 3.16	3.24 to 31.6
O=C(CO)N1CCN(c2cc(Cl)cc3[nH]ncc23)CC1 [Compound 129]	< 3.16	3.24 to 31.6
CN(CC1CCN(c2cc(Cl)cc3[nH]ncc23)CC1)S(C)(=O)=O [Compound 130]	< 3.16	3.24 to 31.6
CS(=O)(=O)N1CCN(c2cc(C3CCCC3)cc3[nH]ncc23)CC1 [Compound 131]	> 100	32.4 to 100
CN(C)C(=O)N1CCC(c2cc(Cl)cc3[nH]ncc23)CC1 [Compound 132]	< 3.16	3.24 to 31.6
CC(=O)N1CCC(c2cc(C(F)(F)F)cc3[nH]ncc23)CC1(C)C (centres unmarked) [Compound 133]	< 3.16	< 3.16
C[C@@H]1CN(c2cc(Cl)cc3[nH]ncc23)C[C@H](C)N1S(C)(=O)=O [Compound 134]	< 3.16	< 3.16
CS(=O)(=O)N1CCN(c2cc(Cl)cc3[nH]nc(N)c23)CC1 [Compound 135]	32.4 to 100	3.24 to 31.6
CC(O)C(=O)N1CCN(c2cc(Cl)cc3[nH]ncc23)CC1 (centres unmarked) [Compound 136]	< 3.16	3.24 to 31.6
O=S(=O)(c1ccccc1)N1CCC(c2cc(Cl)cc3[nH]ncc23)CC1 [Compound 138]	< 3.16	3.24 to 31.6
CC(=O)N1CCN(c2cc(C3CCCC3)cc3[nH]ncc23)CC1 [Compound 139]	32.4 to 100	> 100
CCCS(=O)(=O)N1CCC(c2cc(Cl)cc3[nH]ncc23)CC1 [Compound 140]	< 3.16	3.24 to 31.6
CC(C)S(=O)(=O)N1CCC(c2cc(Cl)cc3[nH]ncc23)CC1 [Compound 141]	< 3.16	3.24 to 31.6
OCCNc1cc(Cl)cc2[nH]ncc12 [Compound 142]	3.24 to 31.6	> 100
O=S(=O)(C1CCCC1)N1CCC(c2cc(Cl)cc3[nH]ncc23)CC1 [Compound 143]	< 3.16	3.24 to 31.6
CN1C(=O)NC2(CCN(c3cc(Cl)cc4[nH]ncc34)CC2)C1=O [Compound 144]	< 3.16	< 3.16
CC(C)c1cc(N2CCN(S(C)(=O)=O)C(C)(C)C2)c2cn[nH]c2c1 [Compound 145]	< 3.16	3.24 to 31.6

SMILES	IC50 (TDO) [µM]	IC50 (IDO) [µM]
CS(=O)(=O)N1CCN(c2cc(N3CCCC3)cc3[nH]ncc23)CC1 [Compound 146]	32.4 to 100	> 100
CC(=O)N1CCN(c2cc(C(C)C)cc3[nH]ncc23)CC1(C)C [Compound 147]	3.24 to 31.6	3.24 to 31.6
CC1(C)CN(c2cc(C3CCCC3)cc3[nH]ncc23)CCN1S(C)(=O)=O [Compound 148]	3.24 to 31.6	32.4 to 100
CC(=O)N1CCN(c2cc(C3CCCC3)cc3[nH]ncc23)CC1(C)C [Compound 149]	3.24 to 31.6	3.24 to 31.6
CNC(=O)N1CCC(c2cc(Cl)cc3[nH]ncc23)CC1 [Compound 150]	< 3.16	3.24 to 31.6
CS(=O)(=O)N1CCN(c2cc(Cl)cc3[nH]ncc23)c2ccccc21 [Compound 151]	> 100	3.24 to 31.6
OCCc1cc(Cl)cc2[nH]ncc12 [Compound 152]	3.24 to 31.6	> 100
CC(O)c1cc(Cl)cc2[nH]ncc12 (centres unmarked) [Compound 153]	< 3.16	32.4 to 100
CC1(C)CC(c2cc(C(F)(F)F)cc3[nH]ncc23)CCN1S(C)(=O)=O (centres unmarked) [Compound 154]	< 3.16	3.24 to 31.6
CNCCNc1cc(Cl)cc2[nH]ncc12 [Compound 156]	3.24 to 31.6	32.4 to 100
CS(=O)(=O)N1CCN(c2cc(-c3ncco3)cc3[nH]ncc23)CC1 [Compound 157]	> 100	32.4 to 100
CCc1cc(N2CCN(S(C)(=O)=O)CC2)c2cn[nH]c2c1 [Compound 158]	3.24 to 31.6	3.24 to 31.6
CS(=O)(=O)N1CCC(Oc2cc(Cl)cc3[nH]ncc23)CC1 [Compound 159]	3.24 to 31.6	3.24 to 31.6
CC(=O)N1CCC(Oc2cc(Cl)cc3[nH]ncc23)CC1 [Compound 160]	< 3.16	3.24 to 31.6
CCc1cc(N2CCN(S(C)(=O)=O)C(C)(C)C2)c2cn[nH]c2c1 [Compound 161]	< 3.16	< 3.16
COCCn1ncc2c(OC3CCN(S(C)(=O)=O)CC3)cc(Cl)cc21 [Compound 162]	> 100	32.4 to 100
CS(=O)(=O)N1CCC(Oc2cc(Cl)cc3c2cnn3CCO)CC1 [Compound 163]	> 100	32.4 to 100
CN1CCN(c2cc(Cl)cc3[nH]ncc23)CC1(C)C [Compound 164]	< 3.16	32.4 to 100
O=C(C1CC1)N1CCC(c2cc(Cl)cc3[nH]ncc23)CC1 [Compound 165]	< 3.16	32.4 to 100
CC(C)C(=O)N1CCC(c2cc(Cl)cc3[nH]ncc23)CC1 [Compound 166]	< 3.16	32.4 to 100

Source: patent publication US10590086B2, “Pharmaceutical compound” (IOmet Pharma Ltd., priority 2014, dated 2020)
